Assay results: patent US9682966B2, “Kappa opioid ligands” (The Scripps Research Institute, priority 2012, dated 2017)

molecular target: kappa opioid receptor (OPRK1) (Homo sapiens (Human), UniProt P41145); assay: OPRK1 antagonist assay (b-arrestin-2-TEV / b-lactamase reporter, EC80 U-50488 challenge); format: cell-based; conditions: % inhibition to which the printed IC50 value refers, if other than 50%
Sequence (P41145 whole entry): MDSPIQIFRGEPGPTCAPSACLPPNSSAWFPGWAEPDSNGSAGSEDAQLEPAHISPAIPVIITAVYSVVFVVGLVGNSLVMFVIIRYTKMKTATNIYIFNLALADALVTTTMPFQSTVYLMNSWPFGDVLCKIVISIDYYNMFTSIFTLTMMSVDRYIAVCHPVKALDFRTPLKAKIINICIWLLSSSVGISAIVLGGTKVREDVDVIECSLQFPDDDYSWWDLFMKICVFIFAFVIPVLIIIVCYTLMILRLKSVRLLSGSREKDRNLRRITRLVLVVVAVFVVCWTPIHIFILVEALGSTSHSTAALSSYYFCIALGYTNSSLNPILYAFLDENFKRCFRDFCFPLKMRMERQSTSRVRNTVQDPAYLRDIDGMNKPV

| Structure (SMILES) | % inhib if other than 50% [%] |
| --- | --- |
| COC(=O)c1cc(Br)cnc1N1CCC(NCCO)CC1 [compound 6] | 80 |

same assay, conditions: OPRK1 antagonist assay vs EC80 U-50488

| Structure (SMILES) | IC50 [nM] |
| --- | --- |
| CO[C@H]1CN(c2nc3ccccc3nc2-c2nc(C)no2)CC[C@H]1NC1CCCCC1 [compound 333] | 6.6 |
| COC(=O)c1cc(C#N)c(N2CCC(NC3CCCCC3)CC2)nc1C [C55] | > 20000 |
| Cc1cc(-c2noc(C)n2)c(N2CCC(NC3CCCCC3)CC2)nn1 [compound 420] | 3 |
| CCc1cnc(N2CCC(NC3CCCCC3)C(OC)C2)c(-c2nc(C)no2)c1 (stereo not drawn) [compound 379] | 525 |
| COC(=O)c1cc(NS(C)(=O)=O)cnc1N1CCC(NC2CCCCC2)CC1 [C30] | > 10000 |
| Cc1ccc2nc(N3CCC(NC4CCCC4)CC3)c(-c3noc(C)n3)cc2c1 [compound 414] | 9 |
| CC(=O)c1cc(-c2ccccc2)cnc1N1CC[C@@H](NC2CCCCC2)[C@H](O)C1 [C65] | > 10000 |
| Cc1ccc2nc(N3CCC(NC4CCCC4)CC3)c(-c3nc(C)no3)cc2c1 [compound 369] | 2 |
| CCOC(=O)c1c(C(F)(F)F)ccnc1N1CCC(NC2CCCCC2)CC1 [C26] | > 10000 |
| CC(=O)c1cc(C2CC2)cnc1N1CC[C@@H](NC2CCCCC2)[C@H](O)C1 [C62] | > 10000 |
| Cc1noc(-c2cc(C)c(C)nc2N2CCC(NCC(C)C)CC2)n1 [compound 394] | 161 |
| Cc1ccc2nc(N3CCC(NC4CCC[C@@H]4O)CC3)c(-c3noc(C)n3)cc2c1 (stereo partly drawn) [compound 418] | 50 |
| COC(=O)c1cc(NC(=O)C(C)(C)C)cnc1N1CCC(NC2CCCCC2)CC1 [C37] | > 10000 |
| CO[C@@H]1CN(c2ncc(C)cc2-c2noc(C)n2)CC[C@@H]1NC1CCCCC1 [compound 399] | 953 |
| Cc1ccc2nc(N3CCC(NC4CCCC4)CC3)c(-c3ccc(C)nn3)cc2c1 [compound 445] | 55 |
| O[C@@H]1CCCC[C@H]1NC1CCN(c2ccc(Cl)cn2)CC1 [C12] | > 10000 |
| COC(=O)c1cnc(N2CCC(NC3CCCCC3)CC2)c(NC(C)=O)c1 [C39] | > 10000 |
| CO[C@@H]1CN(c2nc3ccccc3nc2-c2nc(C)no2)CC[C@@H]1NC1CCCCC1 [compound 334] | 161 |
| c1cnnc(-c2cc3ccccc3nc2N2CCC(NC3CCCCC3)CC2)c1 [compound 464] | 87 |
| Cc1ccc2nc(N3CCC(NC(C)CC(C)C)CC3)c(-c3nc(C)no3)cc2c1 (stereo not drawn) [C72] | > 10000 |
| Cc1nc(-c2c(N3CCC(NC4CCCC[C@@H]4O)CC3)nc3ccccc3c2C)no1 (stereo partly drawn) [compound 446] | 72 |
| CO[C@@H]1CN(c2nc(C)ccc2-c2ccc(C)nn2)CC[C@@H]1NC1CCCCC1 [compound 427] | 4600 |
| Cc1cc(-c2noc(C)n2)c(N2CCC(NCC(C)C)CC2)nn1 [compound 431] | 22 |

| Structure (SMILES) | IC50 [nM] |
| --- | --- |
| Cc1noc(-c2cc3c(nc2N2CC[C@@H](NC4CCCCC4)[C@H](O)C2)CCCC3)n1 [compound 192] | 199 |
| Cc1noc(-c2ccc(CO)nc2N2CCC(NC3CCCCC3)CC2)n1 [compound 428] | 101 |
| Cc1ccc2nc(NCCCNC3CCCCC3)c(-c3nc(C)no3)cc2c1 [C86] | > 10000 |
| Cc1ccc2nc(N3CCC(NC4(C)CCOCC4)CC3)c(-c3noc(C)n3)cc2c1 [compound 417] | 105 |
| Cc1ccc2nc(N3CCC(NC4CCCCC4)CC3)c(-c3ccc(C)nn3)cc2c1 [compound 438] | 75 |
| COC(=O)c1cc(NC(=O)CN)cnc1N1CCC(NC2CCCCC2)CC1 [C41] | > 10000 |
| Cc1cnc(-c2cc3ccccc3nc2N2CCC(NC3CCOCC3)CC2)o1 [C81] | > 10000 |
| Cc1ccc2nc(N3CCC(NC(=O)OC(C)(C)C)CC3)c(-c3nc(C)no3)cc2c1 [C71] | > 10000 |
| CCCCOC(=O)c1cc(Br)cnc1N1CCC(NC2CCCCC2)CC1 [C32] | > 10000 |
| CN(C)C(=O)c1cc(Br)cnc1N1CCC(NC2CCCCC2)CC1 [C19] | > 10000 |
| COC(=O)c1cnc(N2CC[C@@H](NC3CCCCC3)[C@H](O)C2)c(Br)c1 [compound 132] | 4000 |
| CCO/N=C/c1cc2cc(C)ccc2nc1N1CCC(NC2CCCCC2)CC1 [compound 460] | 141 |
| CCN(CC)C(=O)c1cc(Br)cnc1N1CCC(NC2CCCCC2)CC1 [C18] | > 10000 |
| O=C(O)c1cc(Br)cnc1N1CCC(NC2CCCCC2)CC1 [C29] | > 10000 |
| Cc1cnc(N2CCC(NCC(C)C)CC2)c(-c2cc(C)no2)c1 [compound 381] | 860 |
| Cc1ccc2nc(N3CCC(NCC(C)C)CC3)c(-c3noc(C)n3)cc2c1 [compound 413] | 22 |
| CO[C@@H]1CN(c2nc(C)c(C)cc2-c2nc(C)no2)CC[C@@H]1NC1CCCCC1 [compound 342] | 48 |
| CO[C@H]1CN(c2nc(C)ccc2-c2noc(C)n2)CC[C@H]1NC1CCCCC1 [compound 429] | 214 |
| Cc1ccc2nc(N3CCC(NC4CCCCC4O)CC3)c(-c3ccc(C)nn3)cc2c1 (stereo not drawn) [compound 451] | 94 |
| COC1CN(c2nc3ccccc3cc2-c2ncc(C)o2)CCC1NC1CCCCC1 (stereo not drawn) [C79] | > 10000 |
| Cc1cnc(N2CCC(NCC(C)C)CC2)c(-c2nc(C)no2)c1 [compound 393] | 346 |
| CCc1ccc(-c2cc3cc(C)ccc3nc2N2CCC(NC3CCCC[C@@H]3O)CC2)nn1 (stereo partly drawn) [compound 454] | 783 |
| COC(=O)c1cc(Br)cnc1N1CCC(OC2CCCCC2O)CC1 (stereo not drawn) [C50] | > 10000 |

| Structure (SMILES) | IC50 [nM] |
| --- | --- |
| COC(=O)c1cc(Br)cnc1N1CCC(N2CCN(C)CC2)CC1 [C8] | > 10000 |
| CCc1noc(-c2cc3cc(C)ccc3nc2N2CC[C@H](NC3CCCCC3)[C@H](OC)C2)n1 [compound 330] | 4.9 |
| Cc1ccc2nc(N3CCC(C)(NC4CCCCC4)CC3)c(-c3nc(C)no3)cc2c1 [C75] | > 10000 |
| Cc1noc(-c2cc3cc(C)c(C)cc3nc2N2CCC(NC3CCOCC3)CC2)n1 [C90] | > 10000 |
| Cc1ccc2nc(N3CCC(NC(C)C)CC3)c(-c3nc(C)no3)cc2c1 [C73] | > 10000 |
| Cc1nc(-c2c(N3CCC(NCC(C)C)CC3)nc3ccccc3c2C)no1 [compound 448] | 226 |
| COC(=O)c1cc(Br)cnc1N1CCC(N[C@@H]2CCCCC[C@@H]2O)CC1 [C9] | > 10000 |
| CO[C@@H]1CN(c2ncc(C)cc2-c2nc(C)no2)CC[C@@H]1NC1CCCCC1 [compound 341] | 76 |
| CCOC(=O)CCNC1CCN(c2nc3ccc(C)cc3cc2-c2nc(C)no2)CC1 [compound 407] | 341 |
| COC(=O)c1cc(Br)cnc1N1CCC(NCc2ccccc2OC)CC1 [C23] | > 10000 |
| Cc1cc(Cl)nc(N2CCC(N[C@@H]3CCCC[C@H]3O)CC2)c1C#N [C11] | > 10000 |
| COC(=O)c1cc(-c2ccccc2)cnc1N1CCC(NC2CCCCC2)CC1 [C13] | > 10000 |
| COC(=O)c1cnc(N2CCC(NC3CCCCC3)CC2)c(NS(C)(=O)=O)c1 [C40] | > 10000 |
| CO[C@H]1CN(c2ncc(C)cc2-c2nc(C)no2)CC[C@H]1N(C1CCCC1)C1CCCC1 [compound 339] | 29 |
| Cc1ccc2nc(N3CCC(N[C@H](C)C(C)C)CC3)c(-c3noc(C)n3)cc2c1 [compound 524] | 57 |
| CO[C@H]1CN(c2nc3ccc(C)cc3cc2-c2nc(C3CC3)no2)CC[C@H]1NC1CCCCC1 [compound 337] | 0.73 |
| COC1CN(c2ncc(C)cc2-c2cc(C)no2)CCC1NC1CCCCC1 (stereo not drawn) [compound 380] | 128 |
| Cc1ccc2nc(N3CCC(NC[C@@H](C)O)CC3)c(-c3noc(C)n3)cc2c1 [compound 423] | 191 |
| COC1CN(c2ncc(C)cc2-n2cc(C)cn2)CCC1NC1CCCCC1 (stereo not drawn) [C92] | 58000 |
| CO[C@@H]1CN(c2nc(C)ccc2-c2noc(C)n2)CC[C@@H]1NC1CCCCC1 [compound 430] | 1000 |
| COC(=O)c1cc(Br)cnc1N1CCC(N)CC1 [C1] | > 10000 |
| Cc1nc(-c2c(N3CCC(NC4CCOCC4)CC3)nc3ccccc3c2C)no1 [compound 447] | 1150 |
| CCc1noc(-c2cc(C)cnc2N2CCC(NC3CCCCC3)C(OC)C2)n1 (stereo not drawn) [compound 391] | 105 |

| Structure (SMILES) | IC50 [nM] |
| --- | --- |
| Cc1ccc2nc(N3CCC(NC4CCCCC4CO)CC3)c(-c3nc(C)no3)cc2c1 (stereo not drawn) [compound 368] | 7 |
| COC(=O)c1cnc(N2CCC(N(C(=O)OC(C)(C)C)C3CCCCC3)CC2)c(Br)c1 [C44] | > 10000 |
| COC(=O)c1cnc(N2CCC(NC3CCCCC3)CC2)c(N)c1 [C38] | > 10000 |
| CO[C@@H]1CN(c2nc3ccc(C)cc3cc2-c2nc(C3CC3)no2)CC[C@@H]1NC1CCCC1 [compound 340] | 6 |
| CCC(CC)NC1CCN(c2nc3ccccc3c(C)c2-c2noc(C)n2)CC1 [compound 449] | 129 |
| Cc1cnc(N2CCC(NCC(C)C)CC2)c(-c2nc(C3CC3)no2)c1 [compound 397] | 1280 |
| Cc1ccc2nc(N3CCC(C)(NC4CCOCC4)CC3)c(-c3nc(C)no3)cc2c1 [C74] | > 10000 |
| COC(=O)c1cc(Br)cnc1N1CCCC(NC2CCCCC2)C1 (stereo not drawn) [C14] | > 10000 |
| COC(=O)c1cc(Br)cnc1N1CCC(NC2CCCCC2)(C(=O)OC)CC1 [C21] | > 10000 |
| COC(=O)c1cc(NC(=O)CCN(C)C)cnc1N1CCC(NC2CCCCC2)CC1 [C33] | > 10000 |
| FC(F)(F)c1cc(Br)cnc1N1CCC(NC2CCCCC2)CC1 [C25] | > 10000 |
| Cc1ccc2nc(N3CCC(NC4CCOCC4)CC3)c(-c3ccc(C)nn3)cc2c1 [compound 441] | 392 |
| Cc1ccc2nc(N3CCC(NC(=O)C4CCCCC4)CC3)c(-c3nc(C)no3)cc2c1 [C77] | > 10000 |
| COC(=O)c1cc(Br)cnc1N1CCC(NC(=O)OC(C)(C)C)CC1 [C2] | > 10000 |
| CCc1noc(-c2cc3cc(C)ccc3nc2N2CC[C@@H](NC3CCCCC3)[C@H](O)C2)n1 [compound 335] | 113 |
| O=Cc1cc(Br)cnc1N1CCC(NC2CCCCC2)C(CO)C1 (stereo not drawn) [C46] | > 10000 |
| Cc1ccc2nc(N3CCC(NC[C@H](C)O)CC3)c(-c3noc(C)n3)cc2c1 [compound 424] | 422 |
| CCC(CC)C(=O)NC1CCN(c2nc3ccc(C)cc3cc2-c2nc(C)no2)CC1 [C78] | > 10000 |
| COC(=O)c1cc(C#N)c(N2CCC(NC3CCCCC3)C(CO)C2)nc1C (stereo not drawn) [C56] | > 20000 |
| Cc1cc(-c2noc(C)n2)c(N2CCC(NC3CCCC[C@@H]3O)CC2)nn1 (stereo partly drawn) [compound 452] | 47 |
